Measurements reported in US5728727A, “Antiosteoporotic compound” (American Home Products Corporation, priority 1996, dated 1998).
pIC50: −log10 of the molar value.

Experiments:
[1] = biological target: T1, calcitonin receptor (Homo sapiens, UniProt P30988); experiment: calcitonin agonist test: cAMP generation in T-47D cells; assay type: cell-based; conditions: for cAMP: basal 1
T1 construct: host or cells: T-47D
T1 sequence (P30988 25-474): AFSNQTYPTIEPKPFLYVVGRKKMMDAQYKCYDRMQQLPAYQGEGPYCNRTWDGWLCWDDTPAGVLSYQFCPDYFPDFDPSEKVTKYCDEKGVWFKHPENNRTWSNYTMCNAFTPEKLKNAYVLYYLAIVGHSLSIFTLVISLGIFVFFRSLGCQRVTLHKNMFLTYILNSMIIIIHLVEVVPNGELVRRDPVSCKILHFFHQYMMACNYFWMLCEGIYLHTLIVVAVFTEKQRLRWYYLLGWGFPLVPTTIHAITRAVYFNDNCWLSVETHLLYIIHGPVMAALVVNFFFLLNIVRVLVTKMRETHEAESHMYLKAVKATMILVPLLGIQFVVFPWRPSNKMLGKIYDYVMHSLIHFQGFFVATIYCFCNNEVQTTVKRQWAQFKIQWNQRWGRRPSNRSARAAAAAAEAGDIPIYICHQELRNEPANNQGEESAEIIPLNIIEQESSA
Source text: The second in vitro standard pharmacological test procedure determines the ability of the compound to be evaluated to act as a calcitonin agonist, by measuring the levels of cAMP produced in response to the test compound. The following briefly describes the procedure used and the results obtained.
cAMP was generated in T-47D cells (a human mammary carcinoma cell line available from the American Type Culture Collection, Rockville, Md., USA) according to the following procedure. […] After the incubation was completed, the growth medium was aspirated from the cells in the plate.
Fifty ul of antiserum was added to all wells with the exception of the non-specific binding wells (NSB). Fifty ul of the SPA anti-rabbit reagent was added to all wells.
Intracellular cAMP levels in the T-47D cells following salmon calcitonin stimulation for 10 rain at 37° C. are as follow: […]

[2] = effect on serum calcium levels in young growing rats; assay type: in vivo, rat; parameters: Serum Calcium: unit not given here; conditions: for Serum Calcium: mean
Protocol: {5R*-[6R*, 7S*, 8R*, 9R*, 12S*, 16S*, 18S*, 19S*, (13E)]} 4, 7, 19-Trihydroxy-2, 6, 8, 12, 12, 14, 16, 18-heptamethyl-6, 7, 8, 9, 10, 11, 12, 15, 16, 17, 18, 19-dodecahydro-1, 19:5, 9-diepoxybenzocyclooctadecen-3(5H)-one was also evaluated in an in vivo standard pharmacological test procedure that measures the effect of the test compound on serum calcium levels. Agents that inhibit bone resorption, such as calcitonin, regulate circulating calcium levels by inhibiting osteoclast mediated osteolysis and thereby inhibit the release of calcium from bone. The decrease in serum calcium levels following drug treatment indicates bone sparing activity. Calcitonin acts on specific membrane receptors of the bone resorbing osteoclast cells eliciting second messenger events such as increased cAMP generation that leads to inhibition of the cell's motility and inhibition of its bone resorbing functional activity. If bone turnover activity is high, such as in the young growing rat, this rapid inhibition in bone resorption is reflected by a transient decrease in circulating calcium. […] Young adult male rats weighing 160-170 g were held for at least 72 hours after receipt to acclimatize to colony conditions and then were randomly assigned to groups of 5-7 rats/group for treatment. The rats were administered vehicle or test compound, and at intervals between 0.5 and 3 hours after dosing, 1.0 ml of blood was collected from each rat under ketamin/acepromazine anesthesia via tail artery or (terminal via) cardiac puncture. Serum was evaluated for total calcium using a NOVA 7+7 blood analyzer.
In this standard pharmacological test procedure, all animals were dosed at 0 hours. For animals treated with the compound of Formula I, animals were bled sequentially. For animals treated with salmon calcitonin and untreated normal animals, a different group was used at each time point.

[3] = tested on: osteoclasts; experiment: inhibition of bone resorption by osteoclasts (pits excavated per bone slice); assay type: cell-based; conditions: Osteoclast, neonatal rat osteoclasts on bovine cortical bone slices, 24 h
Protocol: Briefly, osteoclasts were isolated from neonatal rat long bones by mincing the bones in Medium 199 containing Hank's salts (3 ml per 10 bones from each of 5 animals). Osteoclasts were dislodged from the bone fragments by aspirating the bone fragments 50 times into and out of a transfer pipette. 100 μl of the resulting cell suspension from each animal was then plated onto each of 3 (per dose) 4.4 mm^2 slices of devitalized bovine femoral cortical bone that had been placed in the wells of a 96 well plate and pre-wetted with 100 μl of the medium. The osteoclasts were then allowed to adhere for 25 minutes at 37° C. The slices, with adherent osteoclasts, were then rinsed in 5 ml of medium to remove non-adherent cells. The slices were then transferred to Medium 199 containing Earle's salts with only 0.7 g/L NaHCO3 (to ensure that the medium equilibrates to a pH of 6.8-7.1 in a 5% CO2 atmosphere) and 10% heat-inactivated fetal bovine serum. […] The excavations (pits) made by the osteoclasts in the surface of the bone were visualized by staining with 1% toluidine blue for 3 minutes and bone resorption quantified microscopically by counting the number of pits excavated per slice.

[4] = biological target: T2, calcitonin receptor (Rattus norvegicus, UniProt P32214); experiment: binding to the calcitonin receptor (125I-salmon calcitonin displacement, rat renal plasma membrane); parameters: species or system rat (Sprague-Dawley)
T2 construct: Kidneys were removed and placed in ice cold saline; from tissue; host or cells: Sprague-Dawley rat kidney, renal plasma membrane
T2 sequence (P32214 25-479 isoform P32214-2 limits assumed): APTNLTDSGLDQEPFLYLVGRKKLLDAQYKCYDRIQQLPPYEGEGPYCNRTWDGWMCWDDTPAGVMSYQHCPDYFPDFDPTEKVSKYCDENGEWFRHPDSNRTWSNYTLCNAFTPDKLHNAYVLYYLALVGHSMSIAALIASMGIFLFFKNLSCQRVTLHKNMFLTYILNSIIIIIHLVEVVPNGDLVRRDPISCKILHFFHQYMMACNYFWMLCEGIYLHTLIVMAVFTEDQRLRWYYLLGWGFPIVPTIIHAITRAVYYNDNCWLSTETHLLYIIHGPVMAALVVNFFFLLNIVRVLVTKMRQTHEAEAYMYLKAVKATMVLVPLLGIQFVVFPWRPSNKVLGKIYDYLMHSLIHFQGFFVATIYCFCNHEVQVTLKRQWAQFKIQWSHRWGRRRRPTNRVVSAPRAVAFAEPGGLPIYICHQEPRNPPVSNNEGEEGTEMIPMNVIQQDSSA
Protocol: The first in vitro standard pharmacological test procedure measures the ability of the compound to be evaluated to bind to the calcitonin receptor. The following describes the procedure used and the results obtained.
Adult female or male Sprague-Dawley rats (250-350 gm), were euthanized by CO2 asphyxiation. Kidneys were removed and placed in ice cold saline; all subsequent procedures were carded out at 4° C. Kidneys were decapsulated and coarsely minced with scissors. […]
Samples were incubated for 1 hour at room temperature. […] The filters were counted for a period of 2 minutes per sample utilizing an LKB Betaplate Reader.

Molecule Salmon Calcitonin has a cAMP ([1]; calcitonin 0.0001 nM, 10 min at 37° C.) of 2 pmol/mL, a cAMP ([1]; calcitonin 0.001 nM, 10 min at 37° C.) of 13 pmol/mL and a cAMP ([1]; calcitonin 0.01 nM, 10 min at 37° C.) of 105 pmol/mL. For the same molecule, the cAMP ([1]; calcitonin 0.1 nM, 10 min at 37° C.) was greater than 640 pmol/mL, the “Serum Calcium” value ([2]; 5 IU/rat, s.c., 0.5 hours, normals 10.92, p < 0.01) was 8.17 and the “Serum Calcium” value ([2]; 5 IU/rat, s.c., 1.5 hours, normals 10.88, p < 0.01) was 7.45. For the same molecule, the “Serum Calcium” value ([2]; 5 IU/rat, s.c., 3.0 hours, normals 10.40, p < 0.01) was 6.65.
In the case of `CC1=C2O[C@]3(O)C=C2C(=C(O)C1=O)[C@@H]1O[C@H](CC[C@H](C)/C=C(\C)C[C@@H](C)C[C@@H]3C)[C@H](C)[C@H](O)[C@H]1C` (relative stereo) [Formula I, {5R*-[6R*, 7S*, 8R*, 9R*, 12S*, 16S*, 18S*, 19S*, (13E)]} 4,7, 19-Trihydroxy-2,6,8, 12, 12, 14, 16, 18-heptamethyl-6,7,8,9, 10, 11, 12, 15, 16, 17, 18, 19-dodecahydro-1, 19:5,9-diepoxybenzocyclooctadecen-3(5H)-one], the EC50 ([1]; 10 min at 37° C., 10 μM IBMX, read-out: EC50, cAMP production (converted)) was 0.616 µM, the “calcitonin agonist activity (in words)” value ([1]; cAMP) was “potent calcitonin agonist” and the “Serum Calcium” value ([2]; 10 mg/kg, i.p., 0.5 hours, normals 10.92) was 10.73. The “Serum Calcium” value ([2]; 10 mg/kg, i.p., 1.5 hours, normals 10.88, p < 0.01) was 10.21, the “Serum Calcium” value ([2]; 10 mg/kg, i.p., 3.0 hours, normals 10.40, p < 0.01) was 9.99 and the “Serum Calcium” value ([2]; 30 mg/kg, i.p., 0.5 hours, normals 10.92) was 10.60. The “Serum Calcium” value ([2]; 30 mg/kg, i.p., 1.5 hours, normals 10.88, p < 0.05) was 10.43, the “Serum Calcium” value ([2]; 30 mg/kg, i.p., 3.0 hours, normals 10.40) was 10.18 and the “Serum Calcium” value ([2]; 100 mg/kg, i.p., 0.5 hours, normals 10.92, p < 0.01) was 10.29. For the same molecule, the “Serum Calcium” value ([2]; 100 mg/kg, i.p., 1.5 hours, normals 10.88, p < 0.01) was 10.19, the “Serum Calcium” value ([2]; 100 mg/kg, i.p., 3.0 hours, normals 10.40, p < 0.05) was 10.06 and the “reduction of serum calcium levels (in words)” value ([2]; young growing rats, summary statement) was “significantly reduced serum calcium levels”. For the same molecule, the IC50 [3] was 0.8 µg/mL, the “inhibition of the binding of calcitonin to the calcitonin receptor (in words)” value [4] was “competitively inhibited” and the pIC50 ([4]; 1 hour at room temperature) was 4.69.
